For 12 molecules, GI50 and TGI results are on record in PubChem BioAssay (NCI).

Test systems include SR leukemia; TK-10 renal; IGROV1 ovarian; MDA-MB-435; A498 renal; OVCAR-8 ovarian; UO-31 renal; SK-MEL-5 melanoma; OVCAR-5 ovarian; PC-3 prostate.
Common to all, as to experiment: growth of human tumour cells (NCI), 48 h

SMILES strings stand for the structures. Where “and” joins values, the source holds several entries; their conditions need not be identical. Equal entries are not always repeated.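 Five concentrations, 48 hours, 96-well plates. GI50: concentration for 50% inhibition of growth. TGI: total growth inhibition.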

Turning to `CC1(C)CC([P+](c2ccccc2)(c2ccccc2)c2ccccc2)=NN1`, the GI50 in the experiment on SR leukemia was 1.2 µM; in the experiment on TK-10 renal, 1.47 µM; in the experiment with IGROV1 ovarian it was 6.47 µM; with MDA-MB-435 it was 2.79 µM; in the experiment with A498 renal it was 4.24 µM; in the experiment on OVCAR-8 ovarian it was 5.92 µM. The GI50 in the experiment on UO-31 renal was above 100 µM; in the experiment with SK-MEL-5 melanoma it was 3.13 µM; in the experiment on OVCAR-5 ovarian, 18.7 µM. Further, the TGI was 5.51 µM in the experiment on SR leukemia; 16.6 µM with TK-10 renal; above 100 µM in the experiment with IGROV1 ovarian; above 100 µM with MDA-MB-435; 35.7 µM with A498 renal; above 100 µM in the experiment on OVCAR-8 ovarian. Also, the TGI in the experiment with UO-31 renal was above 100 µM; in the experiment with SK-MEL-5 melanoma it was 17.7 µM; with OVCAR-5 ovarian, above 100 µM.
Turning to `CCOC(=O)C(C)(C)Oc1ccc2c(-c3ccc(Cl)cc3)c(-c3ccc(Cl)cc3)c(=O)oc2c1`, the TGI in the experiment on SR leukemia, in the experiment on TK-10 renal, with IGROV1 ovarian, in the experiment with A498 renal, in the experiment with OVCAR-8 ovarian and in the experiment on UO-31 renal was above 100 µM each time. In the experiment with SK-MEL-5 melanoma, this molecule showed a TGI above 100 µM.
As for `CC1[C@@H]2CC=C3[C@H]4CCC5Cc6nc7c(nc6C[C@@]5(C)C4(O)CC(=O)[C@]32CO[C@]12OC(C)(C)CC2O)CC1CC[C@@H]2C3=C[C@H]4O[C@@]5(O[C@@](C)(CO)C[C@@H]5O)C(C)[C@@]4(O)[C@]3(C)[C@@H](O)CC2[C@]1(C)C7` (stereo not given in full), the GI50 was 0.000155 µM in the experiment on SR leukemia; 0.00258 µM and 0.0049 µM with IGROV1 ovarian; 0.000396 µM with A498 renal; 0.198 µM with OVCAR-8 ovarian; 0.000717 µM and 0.00638 µM in the experiment on SK-MEL-5 melanoma; 0.0142 µM and 0.00734 µM in the experiment on OVCAR-5 ovarian. In addition, the TGI in the experiment on SR leukemia is 0.0821 µM; in the experiment with TK-10 renal, 0.307 µM; in the experiment on IGROV1 ovarian, above 3.6 µM; in the experiment on A498 renal, 0.00425 µM and 0.00493 µM; in the experiment with OVCAR-5 ovarian, 0.426 µM and 0.118 µM.
On to `CS/C(c1ccccc1)=[N+](\[O-])Cc1ccccc1`, for which the TGI was 43.3 µM in the experiment with SR leukemia; above 100 µM with TK-10 renal; above 100 µM in the experiment on IGROV1 ovarian; above 100 µM in the experiment with A498 renal; above 100 µM in the experiment on OVCAR-8 ovarian; above 100 µM with UO-31 renal. Further, the TGI with SK-MEL-5 melanoma and in the experiment on OVCAR-5 ovarian was above 100 µM in each case.
For `O=S(=O)(NC1=NCCN1C(=S)SN1CCn2c1nsc2=S)c1ccccc1Cl`, the GI50 was 0.469 µM with SR leukemia; 16.3 µM with TK-10 renal; 34.8 µM in the experiment on IGROV1 ovarian; 8.67 µM in the experiment on MDA-MB-435; 24.6 µM in the experiment with A498 renal; 28.6 µM in the experiment with OVCAR-8 ovarian. For the same molecule, the GI50 is 26.1 µM in the experiment on UO-31 renal, 15.8 µM in the experiment on SK-MEL-5 melanoma and 12.2 µM in the experiment on OVCAR-5 ovarian. The TGI in the experiment on SR leukemia is 3.31 µM; with TK-10 renal it was 64.2 µM; in the experiment with IGROV1 ovarian, above 100 µM; in the experiment with MDA-MB-435, 29.2 µM; in the experiment with A498 renal, 59 µM; in the experiment with OVCAR-8 ovarian, above 100 µM. Further, the TGI with UO-31 renal is above 100 µM; in the experiment on SK-MEL-5 melanoma it was 31.1 µM; in the experiment on OVCAR-5 ovarian, 27.7 µM.
For the molecule `CCOC(=O)C(C(=O)OCC)C(=O)c1ccccc1C(=O)c1ccccc1`, the TGI was 48.8 µM with SR leukemia; above 100 µM in the experiment on TK-10 renal; above 100 µM in the experiment with IGROV1 ovarian; above 100 µM with MDA-MB-435; above 100 µM in the experiment on A498 renal; above 100 µM with UO-31 renal. The TGI in the experiment with SK-MEL-5 melanoma and with OVCAR-5 ovarian was above 100 µM each time.
Consider `CC(=O)/C=C1\CC(=O)Nc2ccccc2N1`, for which the TGI in the experiment with SR leukemia, in the experiment on TK-10 renal, with IGROV1 ovarian, in the experiment on A498 renal, in the experiment on OVCAR-8 ovarian and in the experiment with UO-31 renal was above 100 µM each time. Further, the TGI in the experiment with SK-MEL-5 melanoma and with OVCAR-5 ovarian was above 100 µM each time.
With `COc1ccc2c(CCNC(=O)/C=C/c3ccccc3)c(C(C)=O)[nH]c2c1[N+](=O)[O-]`, the TGI was above 100 µM with SR leukemia; 56.2 µM in the experiment with IGROV1 ovarian; 76.5 µM in the experiment on A498 renal; above 100 µM in the experiment on OVCAR-8 ovarian; above 100 µM with UO-31 renal.
As to `CC(=O)OC1CCC2C(=CCC3C2(C)C(=O)CC2(C)C(C4(C)OC(C(C)C)=CC4=O)C(O)CC32C)C1(C)C` (stereo not given), the TGI with SR leukemia is 72.5 µM; in the experiment with IGROV1 ovarian, above 100 µM; in the experiment on A498 renal it was above 100 µM; with OVCAR-8 ovarian, above 100 µM; in the experiment on UO-31 renal, above 100 µM; with SK-MEL-5 melanoma, 56.9 µM. In addition, in the experiment on OVCAR-5 ovarian, the TGI was above 100 µM.
As to `CC(C)C[C@H](NC(=O)[C@@H](NC(=O)c1cccc(-c2ccccc2)n1)[C@@H](C)O)B(O)O`, the GI50 is 0.00301 µM with SR leukemia; 0.00352 µM in the experiment on TK-10 renal; 0.0256 µM and 0.0229 µM in the experiment with IGROV1 ovarian; 0.00247 µM with A498 renal; 0.0261 µM and 0.0238 µM with OVCAR-8 ovarian; 0.0215 µM and 0.0183 µM with UO-31 renal. In addition, the GI50 was 0.0236 µM in the experiment with PC-3 prostate; 0.00421 µM with SK-MEL-5 melanoma; 0.00843 µM and < 0.0112 µM in the experiment on OVCAR-5 ovarian. The TGI is 0.00843 µM and < 0.102 µM in the experiment on SR leukemia; 0.0592 µM and < 0.0273 µM in the experiment with TK-10 renal; 0.171 µM in the experiment with IGROV1 ovarian; 0.0061 µM and < 0.0178 µM in the experiment with A498 renal; above 51.6 µM in the experiment with OVCAR-8 ovarian; 0.0849 µM and 0.114 µM with UO-31 renal. In addition, the TGI is 1.94 µM in the experiment on PC-3 prostate; 0.0177 µM and < 0.0114 µM in the experiment on SK-MEL-5 melanoma; 0.0513 µM in the experiment with OVCAR-5 ovarian.
With `CCCCCCCCCCCCCCCCCCOc1ccccc1CC(=O)NCC[N+](C)(C)C`, the GI50 with SR leukemia is 2.71 µM; in the experiment with TK-10 renal it was 2.27 µM; with MDA-MB-435, 10.6 µM; with A498 renal it was 9.55 µM; in the experiment with OVCAR-8 ovarian it was 5.79 µM; in the experiment with UO-31 renal, 17.9 µM. The GI50 is 6.59 µM with SK-MEL-5 melanoma and 2.68 µM with OVCAR-5 ovarian. Moreover, the TGI in the experiment with SR leukemia is above 100 µM; in the experiment with TK-10 renal, 6.48 µM; in the experiment on MDA-MB-435 it was 55.1 µM; with A498 renal it was 49.8 µM; with OVCAR-8 ovarian, 41.9 µM; in the experiment on UO-31 renal it was 80.4 µM. Further, the TGI in the experiment with SK-MEL-5 melanoma was found to be 45.8 µM; in the experiment with OVCAR-5 ovarian, 12.8 µM.
As for `FC(F)(F)c1cccc2c(SCCc3n[nH]c(=S)o3)ccnc12`, the GI50 in the experiment with TK-10 renal was 66.6 µM; in the experiment with IGROV1 ovarian, 23.4 µM; with MDA-MB-435, 45.4 µM; in the experiment with OVCAR-8 ovarian it was 36.5 µM; in the experiment on UO-31 renal it was 25.4 µM; in the experiment on PC-3 prostate it was 34.1 µM. Further, the GI50 with SK-MEL-5 melanoma was 19.5 µM; in the experiment with OVCAR-5 ovarian, 97.6 µM. For the same molecule, the TGI with TK-10 renal, in the experiment with IGROV1 ovarian, with MDA-MB-435, with OVCAR-8 ovarian, in the experiment with UO-31 renal and in the experiment on PC-3 prostate was above 100 µM throughout. The TGI was 44.1 µM with SK-MEL-5 melanoma and above 100 µM with OVCAR-5 ovarian.
